Experimental data reported in patent US20250282757A1, “ARYL ETHER-SUBSTITUTED HETEROCYCLIC COMPOUNDS AS GLP1R AGONISTS” (MINDRANK AI LTD., priority 2021, published 2025).

Biological target: GLP-1R (Homo sapiens, UniProt P43220)
Assay: Agonist activity on GLP-1R, HTRF cAMP detection in stably transfected GLP-1R/HEK293 cells
Format: cell-based
Settings: for EC50: 30 min incubation; for Max activity: relative to top concentration of reference GLP-1(7-37)
Experimental: Detection of Agonist Activity of the Test Compounds on GLP-1R
• 1) The test compound was dissolved in DMSO and diluted 4-fold with Bravo for a total of 10 concentration gradients (the starting concentration was 1 mM). […] HBSS (10 mL) pre-warmed at 37° C. was added, mixed gently, and centrifuged at 1000 rpm for 5 minutes. The supernatant was discarded and another 10 mL of […] was added and mixed gently. […] The plate was shaken to mix at 2000 rpm for 60 seconds. • 7) The cells in the 384-well plate were incubated in CO2 cell incubator at 37° C. for 30 min. • 8) 10 μL of HTRF cAMP detection solution was added to the 384-well plate, stick with sealing film, and incubated at room temperature for 1 hour. • 9) After 1 hour of incubation, the sealing film was removed. The plate was put into the EnVision microplate reader to read the values of OD665 nm and OD615 nm.

GLP-1R, sequence (P43220 24-463): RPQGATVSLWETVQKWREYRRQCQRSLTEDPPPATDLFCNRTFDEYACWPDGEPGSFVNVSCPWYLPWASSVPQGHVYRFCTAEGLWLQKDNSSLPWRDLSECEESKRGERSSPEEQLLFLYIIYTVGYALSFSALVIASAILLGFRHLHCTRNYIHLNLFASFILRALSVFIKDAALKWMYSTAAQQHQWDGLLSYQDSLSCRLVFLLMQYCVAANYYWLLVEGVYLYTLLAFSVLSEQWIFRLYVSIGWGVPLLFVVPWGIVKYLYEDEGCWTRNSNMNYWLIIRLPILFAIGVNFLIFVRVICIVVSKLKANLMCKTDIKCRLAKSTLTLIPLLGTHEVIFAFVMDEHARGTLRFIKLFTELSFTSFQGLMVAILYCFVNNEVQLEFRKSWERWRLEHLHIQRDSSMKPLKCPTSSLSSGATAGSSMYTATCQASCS

Row | SMILES | EC50 [nM] | Max activity [%]
1 | CC1(Cn2c(CN3CCC(Oc4cccc(COc5ccc(C#N)cc5F)n4)CC3)nc3ccc(C(=O)O)cc32)COC1 [Compound C5, 2-((4-((6-((4-cyano-2-fluorophenoxy)methyl)pyridin-2-yl)oxy)piperidin-1-yl)methyl)-1-((3-methyloxetan-3-yl)methyl)-1H-benzo[d]imidazole-6-carboxylic acid] | 2.41 | 112.6
2 | N#CCC1(Cn2c(CN3CCC(Oc4cccc(COc5ccc(C#N)cc5F)n4)CC3)nc3ccc(C(=O)O)nc32)CC1 [Compound 138, 2-((4-((6-((4-cyano-2-fluorophenoxy)methyl)pyridin-2-yl)oxy)piperidin-1-yl)methyl)-3-((1-(cyanomethyl)cyclopropyl)methyl)-3H-imidazo[4,5-b]pyridine-5-carboxylic acid] | 0.669 | 125.0
3 | N#Cc1ccc(OCc2cccc(OC3CCN(Cc4nc5ccc(C(=O)O)cc5n4C[C@@H]4CCO4)CC3)c2)c(F)c1 [Compound 67, (S)-2-((4-(3-((4-cyano-2-fluorophenoxy)methyl)phenoxy)piperidin-1-yl)methyl)-1-(oxetan-2-ylmethyl)-1H-benzo[d]imidazole-6-carboxylic acid] | 1.09 | 106.4
4 | CCn1cncc1Cn1c(CN2CCC(Oc3cccc(COc4ccc(C#N)cc4F)c3)CC2)nc2ccc(C(=O)O)cc21 [Compound 13, 2-((4-(3-((4-cyano-2-fluorophenoxy)methyl)phenoxy)piperidin-1-yl)methyl)-1-((1-ethyl-1H-imidazol-5-yl)methyl)-1H-benzo[d]imidazole-6-carboxylic acid] | 0.114 | 99.4
5 | O=C(O)c1ccc2nc(CN3CCC(Oc4cccc(CSc5ccc(Cl)cc5F)n4)CC3)n(C[C@@H]3CCO3)c2c1 [Compound C8] | 25.6 | 117.4
6 | CCn1cncc1Cn1c(CN2CCC(Oc3cccc(OCc4ccc(C#N)cc4F)n3)CC2)nc2ccc(/C=C/C(=O)O)cc21 [Compound C2, (E)-3-(2-((4-((6-((4-cyano-2-fluorobenzyl)oxy)pyridin-2-yl)oxy)piperidin-1-yl)methyl)-1-((1-ethyl-1H-imidazol-5-yl)methyl)-1H-benzo[d]imidazol-6-yl)acrylic acid] | 0.614 | 123.1
7 | CCn1cncc1Cn1c(CN2CCC(Oc3cccc(COc4ccc(Cl)cc4F)c3)CC2)nc2ccc(C(=O)O)cc21 [Compound 7, 2-((4-(3-((4-chloro-2-fluorophenoxy)methyl)phenoxy)piperidin-1-yl)methyl)-1-((1-ethyl-1H-imidazol-5-yl)methyl)-1H-benzo[d]imidazole-6-carboxylic acid] | 0.145 | 91.3
8 | CCn1cncc1Cn1c(CN2CCC(Oc3cccc(COc4ccc(C#N)cc4F)n3)CC2)nc2c(F)cc(C(=O)O)cc21 [Compound 2, 2-((4-((6-((4-cyano-2-fluorophenoxy)methyl)pyridin-2-yl)oxy)piperidin-1-yl)methyl)-1-((1-ethyl-1H-imidazol-5-yl)methyl)-4-fluoro-1H-benzo[d]imidazole-6-carboxylic acid] | 0.0529 | 98.6
9 | O=C(O)c1ccc2nc(CN3CCC(Oc4cccc(COc5ccc(Br)cc5F)n4)CC3)n(C[C@@H]3CCO3)c2c1 [Compound C4, (S)-2-((4-((6-((4-bromo-2-fluorophenoxy)methyl)pyridin-2-yl)oxy)piperidin-1-yl)methyl)-1-(oxetan-2-ylmethyl)-1H-benzo[d]imidazole-6-carboxylic acid] | 0.56 | 147.9
10 | CCn1cncc1Cn1c(CN2CCC(Oc3cccc(COc4ccc(Cl)cc4F)n3)CC2)nc2ccc(C(=O)O)cc21 [Compound 43, 2-((4-((6-((4-chloro-2-fluorophenoxy)methyl)pyridin-2-yl)oxy)piperidin-1-yl)methyl)-1-((1-ethyl-1H-imidazol-5-yl)methyl)-1H-benzo[d]imidazole-6-carboxylic acid] | 0.11 | 109.7

Results, then the compound that gave them:

Row | EC50 [nM] | Max activity [%] | SMILES
11 | 1.47 | 98.0 | CCn1cncc1Cn1c(CN2CCC(Oc3cccc(OCc4ccc(C#N)cc4F)c3)CC2)nc2ccc(C(=O)O)cc21 [Compound S23, 2-((4-(3-((4-cyano-2-fluorobenzyl)oxy)phenoxy)piperidin-1-yl)methyl)-1-((1-ethyl-1H-imidazol-5-yl)methyl)-1H-benzo[d]imidazole-6-carboxylic acid]
12 | 150 | 114.2 | O=C(O)/C=C/c1ccc2nc(CN3CCC(Oc4ccc(F)c(OCc5ccc(Cl)cc5F)n4)CC3)n(C[C@@H]3CCO3)c2c1 [Compound S36]
13 | > 100 | – | CCN1CCC[C@H]1Cn1c(CN2CCC(Oc3cccc(COc4ccc(C#N)cc4F)n3)CC2)nc2ccc(C(=O)O)cc21 [Compound C35, (S)-2-((4-((6-((4-cyano-2-fluorophenoxy)methyl)pyridin-2-yl)oxy)piperidin-1-yl)methyl)-1-((1-ethylpyrrolidin-2-yl)methyl)-1H-benzo[d]imidazole-6-carboxylic acid]
14 | 4.16 | 122.3 | N#Cc1ccc(OCc2cccc(SC3CCN(Cc4nc5ccc(C(=O)O)cc5n4C[C@@H]4CCO4)CC3)n2)c(F)c1 [Compound C41, (S)-2-((4-((6-((4-cyano-2-fluorophenoxy)methyl)pyridin-2-yl)thio)piperidin-1-yl)methyl)-1-(oxetan-2-ylmethyl)-1H-benzo[d]imidazole-6-carboxylic acid]
15 | 2.54 | 99.2 | N#Cc1ccc(OCc2cccc(NC3CCN(Cc4nc5ccc(C(=O)O)cc5n4C[C@@H]4CCO4)CC3)n2)c(F)c1 [Compound C16, (S)-2-((4-((6-((4-cyano-2-fluorophenoxy)methyl)pyridin-2-yl)amino)piperidin-1-yl)methyl)-1-(oxetan-2-ylmethyl)-1H-benzo[d]imidazole-6-carboxylic acid]
16 | 15.4 | 125.2 | N#Cc1ccc(COc2cccc(OC3CCN(Cc4nc5ccc(C(=O)O)cc5n4C[C@@H]4CCO4)CC3)c2)c(F)c1 [Compound S5, (S)-2-((4-(3-((4-cyano-2-fluorobenzyl)oxy)phenoxy)piperidin-1-yl)methyl)-1-(oxetan-2-ylmethyl)-1H-benzo[d]imidazole-6-carboxylic acid]
17 | 3.92 | 104.0 | Cc1cc(C(=O)O)cc2c1nc(CN1CCC(Oc3cccc(COc4ccc(C#N)cc4F)c3)CC1)n2C[C@@H]1CCO1 [Compound C36]
18 | 0.512 | 133.4 | C#Cc1ccc(OCc2cccc(OC3CCN(Cc4nc5ccc(C(=O)O)cc5n4CC4(CC#N)CC4)CC3)n2)c(F)c1 [Compound C25, 1-((1-(cyanomethyl)cyclopropyl)methyl)-2-((4-((6-((4-ethynyl-2-fluorophenoxy)-methyl)pyridine-2-yl)oxy)piperidin-1-yl)methyl)-1H-benzo[d]imidazole-6-carboxylic acid]
19 | 1400 | 93.7 | N#Cc1ccc(COc2cccc(OCC3CCN(Cc4nc5ccc(C(=O)O)cc5n4C[C@@H]4CCO4)CC3)n2)c(F)c1 [Compound S1]
20 | 0.807 | 109.1 | C#Cc1ccc(OCc2cccc(OC3CCN(Cc4nc5ccc(C(=O)O)cc5n4C[C@@H]4CCO4)CC3)n2)c(F)c1 [Compound C15, (S)-2-((4-((6-((4-ethynyl-2-fluorophenoxy)methyl)pyridin-2-yl)oxy)piperidin-1-yl)methyl)-1-(oxetan-2-ylmethyl)-1H-benzo[d]imidazole-6-carboxylic acid]
21 | 1.67 | 76.88 | CCn1cncc1Cn1c(Cc2ccc(Oc3cccc(COc4ccc(Cl)cc4F)n3)cc2)nc2ccc(C(=O)O)cc21 [Compound C24, 2-(4-((6-((4-chloro-2-fluorophenoxy)methyl)pyridin-2-yl)oxy)benzyl)-1-((1-ethyl-1H-imidazole-5-yl)methyl)-1H-benzo[d]imidazole-6-carboxylic acid]
22 | 0.768 | 114.3 | CC(C)n1cncc1Cn1c(CN2CCC(Oc3cccc(COc4ccc(C#N)cc4F)c3)CC2)nc2ccc(C(=O)O)cc21 [Compound C32]
23 | 6.83 | 121.6 | C#Cc1ccc(OCc2cccc(OC3CCN(Cc4nc5ccc(C(=O)O)cc5n4Cc4cncn4C(C)C)CC3)c2)c(F)c1 [Compound C29, 2-((4-(3-((4-ethynyl-2-fluorophenoxy)methyl)phenoxy)piperidin-1-yl)methyl)-1-((1-isopropyl-1H-imidazol-5-yl)methyl)-1H-benzo[d]imidazole-6-carboxylic acid]
24 | 1.07 | 134.3 | O=C(O)c1ccc2nc(CN3CCC(Oc4cccc(COc5ccc(Br)cc5F)n4)CC3)n(Cc3cncn3CC3CC3)c2c1 [Compound C19, 2-((4-((6-((4-bromo-2-fluorophenoxy)methyl)pyridin-2-yl)oxy)piperidin-1-yl)methyl)-1-((1-(cyclopropylmethyl)-1H-imidazol-5-yl)methyl)-1H-benzo[d]imidazole-6-carboxylicacid]
25 | 1.48 | 114.8 | CCn1cncc1Cn1c(CN2CCC(Oc3ccc(F)c(OCc4ccc(Cl)cc4F)n3)CC2)nc2ccc(C(=O)O)cc21 [Compound C11, 2-((4-((6-((4-chloro-2-fluorobenzyl)oxy)-5-fluoropyridin-2-yl)oxy)piperidin-1-yl)methyl)-1-((1-ethyl-1H-imidazol-5-yl)methyl)-1H-benzo[d]imidazole-6-carboxylic acid]
